Assays:
Assay type in all cases: in vivo
rice (Oryza sativa) = experiment: Test C flooded paddy test; conditions: Flood; for Plant response rating (scale of 0 to 100), Rice: 0 is no effect, 100 is complete control
In short: (§1)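 Visual 0–100 injury rating versus controls (0 = no effect, 100 = complete control) at 13 to 15 d. 2-leaf-stage plants; pots flooded 3 cm over soil surface, test compound added to paddy water; greenhouse.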

[1] = system: barnyardgrass (Echinochloa crus-galli); experiment: Test C flooded paddy test; conditions: Flood; for Plant response rating (scale of 0 to 100), Barnyardgrass: 0 is no effect, 100 is complete control
In short: as §1

[2] = system: ducksalad (Heteranthera limosa); experiment: Test C flooded paddy test; conditions: Flood; for Plant response rating (scale of 0 to 100), Ducksalad: 0 is no effect, 100 is complete control
In short: as §1

[3] = system: sedge, umbrella (small-flower umbrella sedge, Cyperus difformis); experiment: Test C flooded paddy test; conditions: Flood; for Plant response rating (scale of 0 to 100), Sedge, Umbrella: 0 is no effect, 100 is complete control
In short: as §1

[4] = system: barnyardgrass (Echinochloa crus-galli); experiment: Test B flooded paddy test; conditions: Flood, 250 g ai/ha; 0 to 100 scale where 0 is no effect and 100 is complete control; 13 to 15 d
In short: (§2)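 Rating scale 0–100 (visual, vs untreated controls) after a 13–15 d greenhouse period; application to the flood layer, 3 cm above soil and maintained; plants at 2-leaf stage when treated.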

[5] = system: ducksalad (Heteranthera limosa); experiment: Test B flooded paddy test; conditions: Flood, 250 g ai/ha; 0 to 100 scale where 0 is no effect and 100 is complete control; 13 to 15 d
In short: as §2

[6] = system: sedge, umbrella (small-flower umbrella sedge, Cyperus difformis); experiment: Test B flooded paddy test; conditions: Flood, 250 g ai/ha; 0 to 100 scale where 0 is no effect and 100 is complete control; 13 to 15 d
In short: as §2

rice (Oryra sativa) = experiment: Test B flooded paddy test; conditions: Flood, 250 g ai/ha; 0 to 100 scale where 0 is no effect and 100 is complete control; 13 to 15 d
In short: as §2

[7] = system: pigweed (Amaranthus retroflexus); experiment: Test A postemergence; conditions: postemergence; for Plant response rating, Pigweed: 0 to 100 scale (0 no effect, 100 complete control)
In short: (§3)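 Ratings of 0 (no effect) to 100 (complete control) come from visual comparison with untreated controls roughly 10 d after treatment. Test chemicals, formulated in a non-phytotoxic solvent mixture with surfactant, were applied either as a preemergence directed soil spray on seeded soil or postemergence to one- to two-leaf plants 2 to 10 cm tall.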

[8] = system: barnyardgrass (Echinochloa crus-galli); experiment: Test A postemergence; conditions: postemergence; for Plant response rating, Barnyardgrass: 0 to 100 scale (0 no effect, 100 complete control)
In short: as §3

[9] = system: giant foxtail (Setaria faberii); experiment: Test A postemergence; conditions: postemergence; for Plant response rating, Foxtail, Giant: 0 to 100 scale (0 no effect, 100 complete control)
In short: as §3

[10] = system: Galium (catchweed bedstraw, Galium aparine); experiment: Test A postemergence; conditions: postemergence; for Plant response rating, Galium: 0 to 100 scale (0 no effect, 100 complete control)
In short: as §3

[11] = system: ragweed (common ragweed, Ambrosia elatior); experiment: Test A postemergence; conditions: postemergence; for Plant response rating, Ragweed: 0 to 100 scale (0 no effect, 100 complete control)
In short: as §3

[12] = system: ryegrass, Italian (Italian ryegrass, Lolium multiflorum); experiment: Test A postemergence; conditions: postemergence; for Plant response rating, Ryegrass, Italian: 0 to 100 scale (0 no effect, 100 complete control)
In short: as §3

[13] = system: blackgrass (Alopecurus myosuroides); experiment: Test A postemergence; conditions: postemergence; for Plant response rating, Blackgrass: 0 to 100 scale (0 no effect, 100 complete control)
In short: as §3

corn (Zea mays) = experiment: Test A postemergence; conditions: postemergence; for Plant response rating, Corn: 0 to 100 scale (0 no effect, 100 complete control)
In short: as §3

[14] = system: wheat (Triticum aestivum); experiment: Test A postemergence; conditions: postemergence; for Plant response rating, Wheat: 0 to 100 scale (0 no effect, 100 complete control)
In short: as §3

Kochia (Kochia scoparia) [15] = experiment: Test A postemergence; conditions: postemergence; for Plant response rating, Kochia: 0 to 100 scale (0 no effect, 100 complete control)
In short: as §3

[16] = system: pigweed (Amaranthus retroflexus); experiment: Test A preemergence
[17] = system: barnyardgrass (Echinochloa crus-galli); experiment: Test A preemergence
In short: as §3

[18] = system: giant foxtail (Setaria faberii); experiment: Test A preemergence
In short: as §3

[19] = system: ragweed (common ragweed, Ambrosia elatior); experiment: Test A preemergence
In short: as §3

[20] = system: ryegrass, Italian (Italian ryegrass, Lolium multiflorum); experiment: Test A preemergence
In short: as §3

Kochia (Kochia scoparia) [21] = experiment: Test A preemergence
In short: as §3

[22] = system: morningglory (Ipomoea spp.); experiment: Test A postemergence; conditions: Ipomoea, post-emergence, 240 h; 1000 g ai/ha, postemergence; 0 to 100 scale, 0 no effect, 100 complete control; read-out: Plant response rating, Morningglory
In short: as §3

[23] = 31 g ai/ha, scale 0 to 100 (0 no effect, 100 complete control), 13 to 15 d
[24] = 125 g ai/ha, visual rating after approx. 10 d
[25] = 500 g ai/ha, visual injury, approx. 10 d
[26] = 125 g ai/ha, Preemergence, visual injury after approximately 10 d, 0 to 100 scale where 0 is no effect and 100 is complete control
[27] = 500 g ai/ha, preemergence, 0 to 100 scale, 0 = no effect, 100 = complete control
[28] = Preemergence, 1000 g ai/ha, 0 is no effect, 100 is complete control

For Cc1ccc(C2CN(C)C(=O)C2C(=O)Nc2ccc(F)cc2F)cc1 (stereo not drawn) [Compound 664], the “Plant response rating, Rice” value (rice (Oryza sativa); [23]) was 0, the “Plant response rating (scale of 0 to 100), Rice” value (rice (Oryza sativa); 62 g ai/ha) was 0 and the “Plant response rating (scale of 0 to 100), Rice” value (rice (Oryza sativa); 125 g ai/ha) was 0. For the same compound, the “Plant response rating (scale of 0 to 100), Rice” value (rice (Oryza sativa); 250 g ai/ha) was 0, the “Plant response rating, Barnyardgrass” value [1, 23] was 0 and the “Plant response rating (scale of 0 to 100), Barnyardgrass” value ([1]; 62 g ai/ha) was 65. The “Plant response rating (scale of 0 to 100), Barnyardgrass” value ([1]; 125 g ai/ha) was 70, the “Plant response rating (scale of 0 to 100), Barnyardgrass” value ([1]; 250 g ai/ha) was 70 and the “Plant response rating, Ducksalad” value [2, 23] was 45. For the same compound, the “Plant response rating (scale of 0 to 100), Ducksalad” value ([2]; 62 g ai/ha) was 70, the “Plant response rating (scale of 0 to 100), Ducksalad” value ([2]; 125 g ai/ha) was 85 and the “Plant response rating (scale of 0 to 100), Ducksalad” value ([2]; 250 g ai/ha) was 100. The “Plant response rating, Sedge, Umbrella” value [3, 23] was 0, the “Plant response rating (scale of 0 to 100), Sedge, Umbrella” value ([3]; 62 g ai/ha) was 0 and the “Plant response rating (scale of 0 to 100), Sedge, Umbrella” value ([3]; 125 g ai/ha) was 0. The “Plant response rating (scale of 0 to 100), Sedge, Umbrella” value ([3]; 250 g ai/ha) was 0, the “Plant response rating, Barnyardgrass” value [4] was 85 and the “Plant response rating, Ducksalad” value [5] was 100. The “Plant response rating, Sedge, Umbrella” value [6] was 0, the “Plant response rating, Rice” value (rice (Oryra sativa)) was 0 and the “Plant response rating, Pigweed” value [7, 24] was 20. The “Plant response rating, Pigweed” value [7, 25] was 20, the “Plant response rating, Barnyardgrass” value [8, 24] was 90 and the “Plant response rating, Barnyardgrass” value [8, 25] was 90. The “Plant response rating, Foxtail, Giant” value [9, 24] was 90, the “Plant response rating, Foxtail, Giant” value [9, 25] was 90 and the “Plant response rating, Galium” value [10, 24] was 50. For the same compound, the “Plant response rating, Galium” value [10, 25] was 60, the “Plant response rating, Ragweed” value [11, 24] was 10 and the “Plant response rating, Ragweed” value [11, 25] was 20. The “Plant response rating, Ryegrass, Italian” value [12, 24] was 30, the “Plant response rating, Ryegrass, Italian” value [12, 25] was 70 and the “Plant response rating, Blackgrass” value [13, 24] was 50. For the same compound, the “Plant response rating, Blackgrass” value [13, 25] was 60, the “Plant response rating, Corn” value (corn (Zea mays); [24]) was 50 and the “Plant response rating, Corn” value (corn (Zea mays); [25]) was 90. For the same compound, the “Plant response rating, Wheat” value [14, 24] was 50, the “Plant response rating, Wheat” value [14, 25] was 70 and the “Plant response rating, Kochia” value (Kochia (Kochia scoparia) [15]; [24]) was 60. For the same compound, the “Plant response rating, Kochia” value (Kochia (Kochia scoparia) [15]; [25]) was 70, the “Plant response rating, Pigweed” value [16, 26] was 60 and the “Plant response rating, Pigweed” value [16, 27] was 60. For the same compound, the “Plant response rating, Barnyardgrass” value [17, 26] was 90, the “Plant response rating, Barnyardgrass” value [17, 27] was 90 and the “Plant response rating, Foxtail, Giant” value [18, 26] was 90. For the same compound, the “Plant response rating, Foxtail, Giant” value [18, 27] was 100, the “Plant response rating, Ragweed” value [19, 26] was 20 and the “Plant response rating, Ragweed” value [19, 27] was 80. The “Plant response rating, Ryegrass, Italian” value [20, 26] was 20, the “Plant response rating, Ryegrass, Italian” value [20, 27] was 80 and the “Plant response rating, Kochia” value (Kochia (Kochia scoparia) [21]; [26]) was 70. The “Plant response rating, Kochia” value (Kochia (Kochia scoparia) [21]; [27]) was 70.

O=C(CN1C[C@H](c2cc(F)cc(F)c2)[C@@H](C(=O)Nc2cccc(F)c2F)C1=O)c1ccccc1 [Compound 784] gave a pest or weed control at 1000 g/ha [22] of 0%, a pest or weed control at 1000 g/ha ([7]; Amaranthus retroflexus, post-emergence, 240 h, 1000 g ai/ha, 0 to 100 scale, 0 no effect, 100 complete control, read-out: Plant response rating, Pigweed) of 0% and a pest or weed control at 1000 g/ha ([8]; Echinochloa crus-galli, post-emergence, 240 h, 1000 g ai/ha, 0 to 100 scale, 0 no effect, 100 complete control, read-out: Plant response rating, Barnyardgrass) of 90%. For the same compound, the pest or weed control at 1000 g/ha ([9]; Setaria faberi, post-emergence, 240 h, 1000 g ai/ha, 0 to 100 scale, 0 no effect, 100 complete control, read-out: Plant response rating, Foxtail, Giant) was 90%, the pest or weed control at 1000 g/ha ([10]; Galium, post-emergence, 240 h, 1000 g ai/ha, 0 to 100 scale, 0 no effect, 100 complete control, read-out: Plant response rating, Galium) was 0% and the pest or weed control at 1000 g/ha ([11]; Ambrosia artemisiifolia, post-emergence, 240 h, 1000 g ai/ha, 0 to 100 scale, 0 no effect, 100 complete control, read-out: Plant response rating, Ragweed) was 0%. For the same compound, the pest or weed control at 1000 g/ha ([12]; Lolium multiflorum, post-emergence, 240 h, 1000 g ai/ha, 0 to 100 scale, 0 no effect, 100 complete control, read-out: Plant response rating, Ryegrass, Italian) was 0%, the pest or weed control at 1000 g/ha ([13]; Alopecurus myosuroides, post-emergence, 240 h, 1000 g ai/ha, 0 to 100 scale, 0 no effect, 100 complete control, read-out: Plant response rating, Blackgrass) was 20% and the Corn plant response rating (crop injury, 0 = no effect, 100 = complete kill) at 1000 g/ha (corn (Zea mays); Zea mays, post-emergence, 240 h, 1000 g ai/ha, 0 to 100 scale, 0 no effect, 100 complete control) was 0%. For the same compound, the plant injury at 1000 g/ha ([14]; Triticum aestivum, post-emergence, 240 h, 1000 g ai/ha, 0 to 100 scale, 0 no effect, 100 complete control, read-out: Plant response rating, Wheat) was 0%, the pest or weed control at 1000 g/ha (Kochia (Kochia scoparia) [15]; Bassia scoparia, post-emergence, 240 h, 1000 g ai/ha, 0 to 100 scale, 0 no effect, 100 complete control, read-out: Plant response rating, Kochia) was 0% and the “Pigweed plant response rating (0 to 100 scale)” value [16, 28] was 0. The “Barnyardgrass plant response rating (0 to 100 scale)” value [17, 28] was 80, the “Foxtail, Giant plant response rating (0 to 100 scale)” value [18, 28] was 90 and the “Ragweed plant response rating (0 to 100 scale)” value [19, 28] was 0. For the same compound, the “Ryegrass, Italian plant response rating (0 to 100 scale)” value [20, 28] was 0 and the “Kochia plant response rating (0 to 100 scale)” value (Kochia (Kochia scoparia) [21]; [28]) was 0.
